Data taken from patent US11247998B2, “Piperazine heteroaryl derivative, preparation method therefor and use of same in medicine” (priority 2017, dated 2022).
Like-named read-outs stand apart in the source and are kept apart here.

What was measured:
[1] = system: HBV DNA replication in HepG2.2.15 cells; test: In vitro anti-HBV activity test (quantitative assay of intracellular HBV DNA), HepG2.2.15 cells, quantitative PCR; type: cell-based, hepatitis B virus (HBV); details: HBV DNA by quantitative PCR; for EC50: compound treatment Day 2 to Day 8; for Emax: read-out: Emax (effect value of the compound to maximally inhibit HBV DNA replication)
Description: In vitro anti-HBV activity test of the compound of the present invention (quantitative assay of intracellular HBV DNA)
HepG2.2.15 cell is a stable expression cell line that has integrated HBV genome.
Virus particles containing HBV DNA can be synthesized by replication, transcription and encapsidation in the cells, and then secreted. In this study, the quantitative analysis of HBV DNA produced by HepG2.2.15 in vitro proliferation was carried out by quantitative PCR method, thereby determining the activity of the compound of the present invention on inhibiting the HBV DNA replication by inhibiting the assembly of HBV capsid protein.
HepG2.2.15 cells were cultured in DMEM/high glucose medium (10% FBS, […] G418) and passaged every three days. On the day of the experiment, a cell suspension was prepared with fresh cell culture medium, and incubated in a 96-well plate (Corning, #3599) at 40,000 cells/well, at 5% carbon dioxide, 37° C. On Day 2, the compound was dissolved in pure DMSO at a concentration of 20 mM, and then the first concentration of 2 mM was formulated with DMSO, and diluted in 4-fold concentration gradient to 8 concentrations. A control well was added with 90 μl of DMSO. The compound solution was diluted 200-fold with DMEM/high glucose medium. The cell culture plate inoculated on Day 1 was taken out. The medium in the wells was removed by a negative pressure suction device, and the formulated medium containing the compound at each concentration was added respectively to each well at 200 μl/well. The plate was incubated at 37° C. for 72 hours. On Day 5, the medium of the cultured cells was replaced with fresh medium containing the same compound in the same way as Day 2, and then the plate was incubated at 37° C. for 72 hours. On Day 8, the cell culture plate was taken out, centrifuged at 300 g for 3 minutes, and the culture supernatant was collected at 200 μl/well. HBV DNA was extracted from the cell culture supernatant with Qiagen automatic DNA extraction device, and the specific method referred to the instructions of the reagents and instruments. Finally, the extracted DNA was eluted with DNA elution buffer at 100 μl/well. The extracted DNA was subjected to quantitative PCR analysis of HBV DNA using Hepatitis B virus nucleic acid quantitative detection kit (Triplex International Biosciences Co., Ltd.), and the specific method referred to the instruction of the kit. The quantitative standard curve was obtained with the standard sample provided in the kit, and the experiments were performed in parallel. Quantitative conversion of each sample was carried out according to the standard curve. Finally, the EC50 value of the compound was calculated with Graphpad Prism software according to each concentration of the compound and the corresponding DNA value.
The in vitro activity of the compound of the present invention on inhibiting the HBV DNA replication by inhibiting the assembly of HBV capsid protein was determined by the above experiment.

[2] = system: HepG2 cells; test: Effect on in vitro proliferation of HepG2 cells (CellTiter-Glo); type: cell-based
Description: (§1) Test Example 2. Effect of the Compound of the Present Invention on In Vitro Proliferation of HepG2 Cells
(§2) HepG2 cells in logarithmic growth phase were taken and digested with trypsin to prepare a cell suspension, which was incubated in a 96-well plate (transparent bottom white 96-well plate, PerkinElmer) at 6,000 cells/well, at 5% carbon dioxide, 37° C. for 16-20 hours. On Day 2, the compound was dissolved in pure DMSO at a concentration of 20 mM. The compound was diluted in 3-fold concentration gradient using an automatic pipetting station (Bravo), 8 concentration points for each compound, and the control well was DMSO. The compound formulated in DMSO at each concentration point was diluted 200-fold with EMEM (containing 10% FBS) medium. The cell culture plate inoculated on Day 1 was taken out. The medium in the wells was removed by a negative pressure suction device, and the formulated medium containing the compound at each concentration was added respectively to each well at 100 μl/well. The plate was incubated at 37° C. for 72 hours. On Day 5, the 96-well cell culture plate was taken out, and freshly formulated CellTiter Glo was added to each well at 100 μl/well. The 96-well plate was left to stand for 5-10 minutes, the bottom was then sealed with a white bottom sealing film (PerkinElmer). The plate was placed in the microplate reader to measure the luminescence signal. The CC50 value of the compound was calculated with Graphpad Prism software according to each concentration of the compound and the corresponding proliferation inhibition signal value.
(§3) The inhibition effect of the compound of the present invention on in vitro proliferation of HepG2 cells was determined by the above experiment.

[3] = Pharmacokinetics assay in rats after intragastrical administration (LC/MS/MS of plasma); type: in vivo; details: SD rats, 2 mg/kg; for Vd/F / AUC / bioavailability / CL/F / half-life / Cmax / MRT: both sexes, rat, plasma, po; for Vd/F: read-out: Apparent distribution volume Vz/F; for AUC: read-out: Area under curve AUC; for bioavailability: read-out: Bioavailability (%) F %; for CL/F: read-out: Clearance CLz/F; for half-life: read-out: Half-life T1/2 (converted); for Cmax: read-out: Plasma concentration Cmax; for MRT: read-out: Residence time MRT
Description: Pharmacokinetics assay of the compound of the present invention
Rats were used as test animals. The drug concentration in plasma at different time points was determined by LC/MS/MS method after intragastrical administration of the compound of Example 1, the compound of Example 2, the compound of Example 4, the compound of Example 6, the compound of Example 7, the compound of Example 11, the compound of Example 39, the compound of Example 42, the compound of Example 44, the compound of Example 45 and the compound of Example 47 to rats. The pharmacokinetic behavior and property of the compound of the present invention were studied and evaluated in rats.
44 Healthy adult SD rats (half male and half female, 4 rats/group) were purchased from Shanghai Jiesijie Laboratory Animal Co., LTD, with Certificate No.: SCXK (Shanghai) 2013-0006.
A certain amount of the test compound was weighed, and added with 5% by volume of DMSO, 5% by volume of tween 80 and 90% by volume of normal saline to prepare a 0.2 mg/mL colorless, clear and transparent solution.
After an overnight fast, SD rats were administrated intragastrically with the test compound at an administration dose of 2.0 mg/kg and an administration volume of 10.0 mL/kg.
The rats were intragastrically administrated the compound of Example 1, the compound of Example 2, the compound of Example 4, the compound of Example 6, the compound of Example 7, the compound of Example 11, the compound of Example 39, the compound of Example 42, the compound of Example 44, the compound of Example 45 and the compound of Example 47. 0.1 ml of blood was taken from the orbit before administration and at 0.5, 1.0, 2.0, 4.0, 6.0, 8.0, 11.0 and 24.0 hours after administration. The samples were stored in heparinized tubes, and centrifuged for 10 minutes at 3500 rpm to separate the blood plasma. The plasma samples were stored at −20° C. The rats were fed two hours after administration.
The content of the test compound in the plasma of rats after intragastrical administration of the test compound at different concentrations was determined: 25 μL of rat plasma at each time after administration was taken, added with 40 μL of the internal standard solution of camptothecin (100 ng/mL) and 200 μL of acetonitrile, vortex-mixed for 5 minutes, and centrifuged for 10 minutes (4000 rpm). 0.2 μL of the supernatant was taken from the plasma samples for LC/MS/MS analysis.

[4] = Effect on in vitro proliferation of HepG2 cells (CellTiter-Glo); type: cell-based; details: human; HepG2 cells, 72 hours, CellTiter-Glo
Description: as §1, §2, §3

[5] = HepG2 cells, 72 hours, CellTiter-Glo, read-out: CC50

SMILES	Emax (effect value of the compound to maximally inhibit HBV DNA replication) [1] [%]	EC50 [1] [nM]	CC50 [2, 5] [µM]	Area under curve AUC [3] [ng·h/mL]	Bioavailability (%) F % [3] [%]	Clearance CLz/F [3] [mL/min/kg]	Half-life T1/2 [3] [h]	Plasma concentration Cmax [3] [ng/mL]	Residence time MRT [3] [h]	EC50 ([1]; Hepatitis B virus) [nM]	Emax ([1]; Hepatitis B virus) [%]	CC50 at 72 h [4] [µM]	Vd/F [3] [L/kg]	AUC [3] [ng·h/mL]	bioavailability [3] [%]	CL/F [3] [mL/min/kg]	half-life [3] [min]	Cmax [3] [ng/mL]	MRT [3] [h]	CC50 [2] [µM]
C[C@H]1Cn2nnc(C(=O)N[C@H](C)C(F)(F)F)c2CN1C(=O)Nc1ccc(F)c(C#N)c1 [Example 45, (S)—N^5-(3-Cyano-4-fluorophenyl)-6-methyl-N^3-((R)-1,1,1-trifluoropropan-2-yl)-6,7-dihydro-[1,2,3]triazolo[1,5-α]pyrazine-3,5(4H)-dicarboxamide]	102	38	> 100	17162 ± 5791	110	2.13 ± 0.73	19.2 ± 7.16	715 ± 187	27.4 ± 9.5	–	–	–	–	–	–	–	–	–	–	–
C[C@@H]1CN(C(=O)Nc2ccc(F)c(F)c2)Cc2c(C(=O)N[C@H](C)C(F)(F)F)nnn21 [Example 42, (R)—N^5-(3,4-Difluorophenyl)-7-methyl-N^3-((R)-1,1,1-trifluoropropan-2-yl)-6,7-dihydro-[1,2,3]triazolo[1,5-α]pyrazine-3,5(4)-dicarboxamide]	–	–	–	–	–	–	–	–	–	75	100	> 100	5.96 ± 1.22	7380 ± 3180	87	5.3 ± 2.47	954 ± 534	433 ± 102	22.1 ± 12.4	–
C[C@H]1Cn2cnc(C(=O)N[C@H](C)C(F)(F)F)c2CN1C(=O)Nc1ccc(F)c(C#N)c1 [Example 11, (S)—N^7-(3-Cyano-4-fluorophenyl)-6-methyl-N^1-((R)-1,1,1-trifluoropropan-2-yl)-5,6-dihydroimidazo[1,5-α]pyrazine-1,7-(8H)-dicarboxamide]	–	–	–	–	–	–	–	–	–	18	100	> 100	2.89 ± 0.389	10900 ± 4520	111	3.53 ± 1.5	672 ± 338	597 ± 64	16.3 ± 7.6	–
C[C@@H]1CN(C(=O)Nc2ccc(F)c(C#N)c2)Cc2c(C(=O)N[C@H](C)C(F)(F)F)nnn21 [Example 44, (R)—N^5-(3-Cyano-4-fluorophenyl)-7-methyl-N^3-((R)-1,1,1-trifluoropropan-2-yl)-6,7-dihydro-[1,2,3]triazolo[1,5-α]pyrazine-3,5(4H)-dicarboxamide]	–	–	–	–	–	–	–	–	–	60	99	> 100	4.13 ± 0.26	11800 ± 3100	94	2.99 ± 0.78	1020 ± 303	509 ± 39.4	24.2 ± 7.38	–
C[C@@H](NC(=O)c1cnn2c1CN(C(=O)Nc1ccc(F)c(F)c1)CC2)C(F)(F)F [Example 2, (R)—N^5-(3,4-Difluorophenyl)-N^3-(1,1,1-trifluoropropan-2-yl)-6,7-dihydropyrazolo[1,5-α]pyrazine-3,5(4H)-dicarboxamide]	–	–	–	–	–	–	–	–	–	30	100	> 100	2.58 ± 0.638	9250 ± 3310	107	4 ± 1.48	481 ± 136	661 ± 200	11.5 ± 2.8	–
C[C@H]1Cn2nnc(C(=O)N[C@H](C)C(F)(F)F)c2CN1C(=O)Nc1ccc(F)c(F)c1 [Example 39, (S)—N^5-(3,4-Difluorophenyl)-6-methyl-N^3-((R)-1,1,1-trifluoropropan-2-yl)-6,7-dihydro-[1,2,3]triazolo[1,5-α]pyrazine-3,5(4H)-dicarboxamide]	100	19	> 100	8105 ± 1585	114	4.21 ± 0.69	6.49 ± 1.71	682 ± 168	9.82 ± 1.75	–	–	–	–	–	–	–	–	–	–	–
C[C@H](NC(=O)c1nnn2c1CN(C(=O)Nc1ccc(F)c(F)c1)[C@@H](C)C2)C(F)(F)F [Example 43, (S)—N^5-(3,4-Difluorophenyl)-6-methyl-N^3—((S)-1,1,1-trifluoropropan-2-yl)-6,7-dihydro-[1,2,3]triazolo[1,5-α]pyrazine-3,5(4-)-dicarboxamide]	99	39	–	–	–	–	–	–	–	–	–	–	–	–	–	–	–	–	–	> 100
